Literature values, collected in patent US20030109678A1, “Methods and means for regulation of gene expression” (priority 2000, published 2003).

Target: mutated form of the human estrogen receptor (ER), G521R mutation (Homo sapiens, UniProt P03372, G521R)
Sequence (P03372 whole entry G521R): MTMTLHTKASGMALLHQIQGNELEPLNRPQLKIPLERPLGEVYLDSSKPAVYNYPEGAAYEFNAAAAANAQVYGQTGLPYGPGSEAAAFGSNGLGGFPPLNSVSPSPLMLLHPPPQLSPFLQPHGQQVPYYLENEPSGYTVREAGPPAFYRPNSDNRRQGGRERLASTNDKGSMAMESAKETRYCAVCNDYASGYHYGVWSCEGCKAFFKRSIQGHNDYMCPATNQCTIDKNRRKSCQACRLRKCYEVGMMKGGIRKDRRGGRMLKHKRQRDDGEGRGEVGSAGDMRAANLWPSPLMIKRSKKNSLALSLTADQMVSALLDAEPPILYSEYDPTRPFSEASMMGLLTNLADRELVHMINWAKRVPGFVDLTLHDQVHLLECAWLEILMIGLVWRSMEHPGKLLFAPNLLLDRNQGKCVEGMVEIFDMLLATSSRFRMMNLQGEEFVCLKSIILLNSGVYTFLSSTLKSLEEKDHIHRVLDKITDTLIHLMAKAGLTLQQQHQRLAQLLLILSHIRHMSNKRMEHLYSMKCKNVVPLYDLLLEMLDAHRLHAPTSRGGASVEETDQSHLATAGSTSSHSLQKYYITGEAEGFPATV

Substance: 4-hydroxytamoxifen
- binding by G521R ER: efficiently binds
